Article PMC9000710, “Synthesis and Hemostatic Activity of New Amide Derivatives” (Molecules, 2022)
Where a name gives a salt, the structure may show the parent alone.

Assays:
human blood plasma [1] = experiment: Clot formation and fibrinolysis (CFF) assay; assay type: biochemical; settings: for Amax (maximum of fibrin clot absorbance at 360 nm) / VmaxC (of Fibrin Polymerization) / VmaxF (of Fibrin Clot Lysis): control plasma assumed as 100%, mean ± SD, n = 5–7
Source text: The CFF assay enables analysis of both the blood plasma coagulation process and fibrinolysis efficiency. The thrombin enzyme in the reagent mixture initiates blood plasma fibrinogen polymerization, leading to an increase in absorbance in the sample until the maximal absorbance (Amax) is attained. The fibrinolytic activity of blood plasma is induced by the tissue-type plasminogen activator (t-PA). The activation of fibrinolysis in the tested samples leads to fibrin clot degradation and decreases the absorbance to the baseline.
Figure 11 An exemplary curve of blood plasma coagulation and clot lysis recorded during the clot formation and fibrinolysis (CFF) assay. The first step in the CFF test involves activation of the blood plasma coagulation cascade and fibrin clot formation (1). It is characterized by the maximal velocity of the fibrin polymerization parameter (VmaxC). The maximal absorbance (Amax) peak corresponds to the fibrin stabilization phase and is an indicator of fibrin clot thickness (2). The third step of the CFF assay covers the activation of fibrinolytic mechanisms and fibrin clot degradation (3) and is described by the maximal velocity of clot lysis (VmaxF).
Thrombin was purchased from BioMed (Lublin, Poland). A tissue-type plasminogen activator (Actilyse®) was purchased from Boehringer Ingelheim, Ingelheim am Rhein, Germany. Kinetic measurements were executed using a SpectrostarNano microplate spectrophotometer (BMG LabTech, Ortenberg, Germany).
Measurements were performed using a kinetic model, as described in our previous work. Briefly, blood plasma was preincubated with the examined substances (at final concentrations of 10, 25, and 50 mg/L) for 15 min at 37 °C. Then, 100 μL of blood plasma was added to microtiter plate wells, which was followed by 200 μL of the reagent mixture (0.75 U/mL thrombin, 225 ng/mL t-PA and 7.5 mM CaCl2) suspended in tris-buffered saline (0.05 M TBS, 0.9% NaCl; pH 7.4). Measurements of absorbance changes were started immediately and continued for 60 min at 37 °C, λ = 360 nm. The following parameters were used to determine the effects of the examined substances on the coagulation and fibrinolytic properties of the blood plasma: the maximal velocity of fibrinogen polymerization (VmaxC), which is an indicator of the plasma coagulation efficiency; the maximal absorbance (Amax), which is an indicator of the fibrin clot stabilization and its thickness; the maximal velocity of clot lysis (VmaxF), which is an indicator of blood plasma fibrinolytic activity.

human blood plasma [2] = experiment: Prothrombin time (PT) clotting assay; assay type: biochemical
Method: (§1) Human blood plasma was isolated from fresh buffy coats (collected onto the citrate-dextrose solution—ACD) purchased from the Regional Centre of Blood Donation and Blood Treatment in Lodz, Poland. In the isolation procedure, the buffy coats (60 mL units) were divided into volumes of 10 mL and centrifuged (4000 rpm/15 min) in 15 mL tubes. Next, 1 mL solutions of each amide 1–8 were prepared in distilled water at concentrations of 10, 25, and 50 mg/L. Then, 450 μL of plasma and 50 μL of each amide at the tested concentrations were placed into 1.5 mL vials. The vials were vortexed (Vortex Biosan V-1 plus), incubated at 37 °C on a thermoblock (Dry Block Thermostat Biosan TDB-120), and analyzed using a Kselmed K-3002 OPTIC coagulometer (Grudziądz, Poland), based on the manufacturer’s protocols (described below). The control sample was native blood plasma, untreated with any of the examined substances.
(§2) Fifty microliters of control plasma and plasma samples treated with the amides were transferred to measuring cuvettes and placed in the thermoblock module (37 °C) of a coagulometer (KSELMED, K-3002 Optic). Then, 100 μL of Dia-PT reagent (DIAGON Kft. Hungary; cat. no. 81100) was added. Measurements were started immediately.

human blood plasma [3] = experiment: Thrombin time (TT) clotting assay; assay type: biochemical
Method: as §1
Both 100 μL of control plasma and plasma samples treated with the amides were transferred to measuring cuvettes, which were placed in the thermoblock module (37 °C) of the coagulometer (KSELMED K-3002 Optic). Then, 100 μL of thrombin solution (4.5 U/mL, in 0.9% NaCl; Biomed, Lublin, Poland) was added to the cuvette. Measurements were started immediately.

[4] = Hemolysis assay (stability of erythrocytes); assay type: cell-based, human; settings: male, human, heparinized whole blood diluted with saline (erythrocytes); for hemolysis at 45 min, 5 mg/L / hemolysis at 120 min, 5 mg/L / hemolysis at 240 min, 5 mg/L: c 5 mg/L; for hemolysis at 45 min, 50 mg/L / hemolysis at 120 min, 50 mg/L / hemolysis at 240 min, 50 mg/L: c 50 mg/L; for hemolysis at 45 min, 500 mg/L / hemolysis at 120 min, 500 mg/L / hemolysis at 240 min, 500 mg/L: c 500 mg/L
Method: Heparinized whole blood was used from a healthy volunteer. The whole blood (10 mL) was diluted with saline solution (90 mL). For each UV-Vis measurement, 2.5 mL of diluted blood was used. For each blood sample, 1 mL of a saline solution containing hydrochlorides 1–8 at concentrations of 5, 50, and 500 mg/L was added. As a control were used blood samples with the addition of 1% solution of DMSO in saline and 1% solution of SDS in saline. In all cases, the measurements were repeated twice for each concentration. […] The cells were centrifuged, and the absorbance of the supernatant, which contained plasma and lysed erythrocytes, was measured at 540 nm. The percentage of lysis was calculated from a standard curve of lysed erythrocytes treated with SDS [52].

human blood plasma [5] = experiment: Activated partial thromboplastin time (aPTT) clotting assay; assay type: biochemical
Method: as §1
as §2, with “of the” for “of a”, “Then, 50” for “Then, 100”, “of Dia-APTT” for “of Dia-PT”, “no. 72048) was added. The mixture was incubated for 180 s at 37 °C. Finally, 50 μL of reagent Dia-CaCl2 (DIAGON Kft. Hungary; cat. no. 41192)” for “no. 81100)”

SMILES	Amax (maximum of fibrin clot absorbance at 360 nm) (human blood plasma [1]; 10 mg/L)	VmaxC (of Fibrin Polymerization) (human blood plasma [1]; 10 mg/L)	VmaxF (of Fibrin Clot Lysis) (human blood plasma [1]; 10 mg/L)	Amax (maximum of fibrin clot absorbance at 360 nm) (human blood plasma [1]; 25 mg/L)	VmaxC (of Fibrin Polymerization) (human blood plasma [1]; 25 mg/L)	VmaxF (of Fibrin Clot Lysis) (human blood plasma [1]; 25 mg/L)	Amax (maximum of fibrin clot absorbance at 360 nm) (human blood plasma [1]; 50 mg/L)	VmaxC (of Fibrin Polymerization) (human blood plasma [1]; 50 mg/L)	VmaxF (of Fibrin Clot Lysis) (human blood plasma [1]; 50 mg/L)	PT Time [% of Control] (human blood plasma [2]; c 10 mg/L)	PT Time [% of Control] (human blood plasma [2]; c 25 mg/L)	PT Time [% of Control] (human blood plasma [2]; c 50 mg/L)	TT Time [% of Control] (human blood plasma [3]; c 10 mg/L)	TT Time [% of Control] (human blood plasma [3]; c 25 mg/L)	TT Time [% of Control] (human blood plasma [3]; c 50 mg/L)	melting point	hemolysis at 45 min, 5 mg/L [4]	hemolysis at 120 min, 5 mg/L [4]	hemolysis at 240 min, 5 mg/L [4]	hemolysis at 45 min, 50 mg/L [4]	also measured
Cl.NCC(=O)NCc1ccc(C(=O)O)cc1 [Amide 6, 4-((2-Aminoacetamido)methyl)benzoic acid hydrochloride]	105.45 ± 5.46%	104.68 ± 3.05 %	98.41 ± 14.71%	102.41 ± 5.56%	103.10 ± 6.82%	100.06 ± 21.96%	102.15 ± 2.46%	101.11 ± 4.77%	91.08 ± 15.49%	96.1 ± 4.4 % of Control	95.8 ± 4.3 % of Control	93.5 ± 7.1 % of Control	92.5 ± 3.0 % of Control	92.3 ± 2.5 % of Control	92.8 ± 4.2 % of Control	235 to 238 °C	0.38%	0.56%	0.19%	0%	TT, effect versus control in words (human blood plasma [3]; all used concentrations (10, 25, 50 mg/L)): shorter TT than the control sample; hemolysis at 120 min, 50 mg/L [4]: 0.11%; hemolysis at 240 min, 50 mg/L [4]: 0.2%; hemolysis at 45 min, 500 mg/L [4]: 0.41%; hemolysis at 120 min, 500 mg/L [4]: 0.68%; hemolysis at 240 min, 500 mg/L [4]: 0.31%; aPTT Time [% of Control] (human blood plasma [5]; c 10 mg/L): 96.1 ± 4.2 % of Control; aPTT Time [% of Control] (human blood plasma [5]; c 25 mg/L): 97.0 ± 3.5 % of Control; aPTT Time [% of Control] (human blood plasma [5]; c 50 mg/L): 98.3 ± 3.6 % of Control
Cl.NCCCCCC(=O)NCc1ccc(C(=O)O)cc1 [Amide 2, 4-((6-Aminohexanamido)methyl)benzoic acid hydrochloride]	105.29 ± 6.41%	103.26 ± 3.98%	75.81 ± 17.04 %	110.74 ± 4.86 %	106.30 ± 3.60 %	79.60 ± 10.55 %	110.77 ± 9.85 %	105.59 ± 3.74 %	85.69 ± 8.80 %	97.0 ± 4.8 % of Control	96.1 ± 2.2 % of Control	95.5 ± 2.5 % of Control	99.0 ± 1.8 % of Control	98.9 ± 4.7 % of Control	95.9 ± 6.8 % of Control	199 to 201 °C	0.41%	0.21%	0.65%	0.11%	effect on fibrin polymerization (VmaxC) in words (human blood plasma [1]; tested at 10, 25, 50 mg/L): Mild pro-coagulant effects; prothrombin time, effect versus control in words (human blood plasma [2]; two higher concentrations (25 and 50 mg/L)): significantly decreased; hemolysis at 120 min, 50 mg/L [4]: 0.74%; hemolysis at 240 min, 50 mg/L [4]: 0.3%; hemolysis at 45 min, 500 mg/L [4]: 1.03%; hemolysis at 120 min, 500 mg/L [4]: 0.21%; hemolysis at 240 min, 500 mg/L [4]: 0.43%; aPTT Time [% of Control] (human blood plasma [5]; c 10 mg/L): 98.5 ± 8.0 % of Control; aPTT Time [% of Control] (human blood plasma [5]; c 25 mg/L): 101.0 ± 13.1 % of Control; aPTT Time [% of Control] (human blood plasma [5]; c 50 mg/L): 101.9 ± 14.0 % of Control
NCC(=O)NCC1CCC(C(=O)O)CC1 (stereo not drawn) (as salt: hydrochloride) [Amide 7, 2-((((1s,4s)-4-Carboxycyclohexyl)methyl)amino)-2-oxoethanaminium chloride]	–	–	–	–	–	–	–	–	–	–	–	–	–	–	–	221 to 224 °C	–	–	–	–	–
NCCCCCC(=O)NCC1CCC(C(=O)O)CC1 (stereo not drawn) (as salt: hydrochloride) [Amide 3, 6-((((1s,4s)-4-Carboxycyclohexyl)methyl)amino)-6-oxohexan-1-aminium chloride]	–	–	–	–	–	–	–	–	–	–	–	–	–	–	–	195 to 197 °C	–	–	–	–	–
NCCCCCC(=O)NCC1CCC(C(=O)O)CC1 (stereo not drawn) [Amide 3, 6-((((1s,4s)-4-Carboxycyclohexyl)methyl)amino)-6-oxohexan-1-aminium chloride]	107.21 ± 6.90 %	105.61 ± 7.06%	93.23 ± 16.83%	104.49 ± 9.80%	103.88 ± 9.73%	97.05 ± 24.39%	112.98 ± 8.40 %	109.78 ± 6.46 %	102.82 ± 20.01%	94.9 ± 2.2 % of Control	95.2 ± 3.0 % of Control	97.0 ± 3.6 % of Control	100.1 ± 2.6 % of Control	100.8 ± 6.9 % of Control	97.2 ± 4.3 % of Control	–	0.44%	0.74%	0.41%	0%	prothrombin time, effect versus control in words (human blood plasma [2]; two lower concentrations (10 and 25 mg/L)): decreased; hemolysis at 120 min, 50 mg/L [4]: 0%; hemolysis at 240 min, 50 mg/L [4]: 0.26%; hemolysis at 45 min, 500 mg/L [4]: 0.47%; hemolysis at 120 min, 500 mg/L [4]: 0.65%; hemolysis at 240 min, 500 mg/L [4]: 0.23%; aPTT Time [% of Control] (human blood plasma [5]; c 10 mg/L): 94.8 ± 4.5 % of Control; aPTT Time [% of Control] (human blood plasma [5]; c 25 mg/L): 94.7 ± 4.1 % of Control; aPTT Time [% of Control] (human blood plasma [5]; c 50 mg/L): 96.3 ± 2.8 % of Control; aPTT, effect versus control in words (human blood plasma [5]; tested at 10, 25, 50 mg/L): significantly decreased
